According to patent US20220048876A1, “INSECTICIDAL COMPOUNDS” (SYNGENTA PARTICIPATIONS AG, priority 2018, published 2022):
Like-named read-outs stand apart in the source and are kept apart here.

Key:
Assay type in all cases: in vivo
[1] = tested on: Plutella xylostella; test: Plutella xylostella (diamond back moth), artificial diet; conditions: 120 h, read-out: effect in at least one of the two categories (mortality or growth inhibition); for percent effect (mortality or growth inhibition) at 200 ppm: application rate 200 ppm, L2 larvae, 5 days after infestation
Protocol: Plutella xylostella (Diamond Back Moth)
24-well microtiter plates with artificial diet were treated with aqueous test solutions prepared from 10′000 ppm DMSO stock solutions by pipetting. After drying, the plates were infested with L2 larvae (10 to 15 per well). The samples were assessed for mortality and growth inhibition in comparison to untreated samples 5 days after infestation.

[2] = tested on: Diabrotica balteata; test: Diabrotica balteata (corn root worm), sprayed maize sprouts; conditions: 96 h, read-out: effect in at least one of the two categories (mortality or growth inhibition); for percent effect (mortality or growth inhibition) at 200 ppm: application rate 200 ppm, L2 larvae, 4 days after infestation
Protocol: Diabrotica balteata (Corn Root Worm)
Maize sprouts placed onto an agar layer in 24-well microtiter plates were treated with aqueous test solutions prepared from 10′000 ppm DMSO stock solutions by spraying. After drying, the plates were infested with L2 larvae (6 to 10 per well). The samples were assessed for mortality and growth inhibition in comparison to untreated samples 4 days after infestation.

[3] = tested on: Spodoptera littoralis; test: Spodoptera littoralis (Egyptian cotton leaf worm), cotton leaf discs; conditions: foliar, 72 h, read-out: control (mortality, anti-feedant effect or growth inhibition)
Protocol: Spodoptera littoralis (Egyptian Cotton Leaf Worm)
Cotton leaf discs were placed onto agar in 24-well microtiter plates and sprayed with aqueous test solutions prepared from 10′000 ppm DMSO stock solutions. After drying the leaf discs were infested with five L1 larvae. The samples were assessed for mortality, anti-feeding effect, and growth inhibition in comparison to untreated samples 3 days after infestation. Control of Spodoptera littoralis by a test sample is given when at least one of the categories mortality, anti-feedant effect, and growth inhibition is higher than the untreated sample.

[4] = tested on: Euschistus heros; test: Euschistus heros (neotropical brown stink bug), sprayed soybean leaves; conditions: 120 h, read-out: effect in at least one of the two categories (mortality or growth inhibition); for percent effect (mortality or growth inhibition) at 200 ppm: application rate 200 ppm, N2 nymphs, 5 days after infestation
Protocol: Euschistus heros(Neotropical Brown Stink Bug)
Soybean leaves on agar in 24-well microtiter plates were sprayed with aqueous test solutions prepared from 10′000 ppm DMSO stock solutions. After drying the leaves were infested with N2 nymphs. The samples were assessed for mortality and growth inhibition in comparison to untreated samples 5 days after infestation.

[5] = tested on: Myzus persicae; test: Myzus persicae (green peach aphid), intrinsic activity; conditions: 120 h
From the text: Myzus persicae (Green Peach Aphid). Intrinsic Activity
Test compounds prepared from 10′000 ppm DMSO stock solutions were applied by pipette into 24-well microtiter plates and mixed with sucrose solution. The plates were closed with a stretched Parafilm. A plastic stencil with 24 holes was placed onto the plate and infested pea seedlings were placed directly on the Parafilm. The infested plate was closed with a gel blotting paper and another plastic stencil and then turned upside down. The samples were assessed for mortality 5 days after infestation.

[6] = tested on: Tetranychus urticae; test: Tetranychus urticae (two-spotted spider mite), feeding/contact activity; conditions: 192 h
Protocol: Tetranychus urticae (Two-Spotted Spider Mite):Feeding/Contact Activity
Bean leaf discs on agar in 24-well microtiter plates were sprayed with aqueous test solutions prepared from 10′000 ppm DMSO stock solutions. After drying the leaf discs were infested with a mite population of mixed ages. The samples were assessed for mortality on mixed population (mobile stages) 8 days after infestation.

[7] = tested on: Thrips tabaci; test: Thrips tabaci (onion thrips), feeding/contact activity; conditions: 144 h
Protocol: Thrips tabaci (Onion Thrips) Feeding/Contact Activity
Sunflower leaf discs were placed on agar in 24-well microtiter plates and sprayed with aqueous test solutions prepared from 10′000 ppm DMSO stock solutions. After drying the leaf discs were infested with a thrips population of mixed ages. The samples were assessed for mortality 6 days after infestation.

[8] = application rate 200 ppm, L1 larvae, 3 days after infestation
[9] = test rate 12 ppm, 5 days after infestation, read-out: mortality
[10] = application rate 200 ppm, mixed population (mobile stages), 8 days after infestation, read-out: mortality
[11] = application rate 200 ppm, mixed ages, 6 days after infestation, read-out: mortality

Cc1cc(C2=NS[C@@](c3cc(Cl)cc(Cl)c3)(C(F)(F)F)C2)ccc1C(=O)NCC1(C#N)CC1 [Compound A1, N-[(1-cyanocyclopropyl)methy]-4-[(5S)-5-(3,5-dichlorophenyl)-5-(trifluoromethyl)-4H-isothiazol-3-yl]-2-methyl-benzamide]
≥ 80%: percent effect (mortality or growth inhibition) at 200 ppm [1] | percent effect (mortality or growth inhibition) at 200 ppm [2] | percent control (mortality, anti-feedant effect or growth inhibition) at 200 ppm [3, 8] | percent effect (mortality or growth inhibition) at 200 ppm [4] | mortality at 12 ppm [5, 9] | mortality at 200 ppm [6, 10] | mortality at 200 ppm [7, 11]

Cc1cc(C2=NO[C@](c3cc(Cl)cc(Cl)c3)(C(F)(F)F)[C@H]2Cl)ccc1C(=O)NCC1(C#N)CC1 [Compound A3, 4-[(4S,5R)-4-chloro-5-(3,5-dichlorophenyl)-5-(trifluoromethyl)-4H-isoxazol-3-yl]-N-[(1-cyanocyclopropyl)methyl]-2-methyl-benzamide]
≥ 80%: percent control (mortality or growth inhibition) at 200 ppm [1] | percent control (mortality or growth inhibition) at 200 ppm [2] | percent control (mortality, anti-feedant effect or growth inhibition) at 200 ppm [3] | percent control (mortality or growth inhibition) at 200 ppm [4] | mortality at 12 ppm [5] | mortality at 200 ppm [6] | mortality at 200 ppm [7]

Cc1cc(C2=COC(c3cc(Cl)cc(Cl)c3)(C(F)(F)F)C2)ccc1C(=O)NCC1(C#N)CC1 (centres unmarked) [Compound A2, N-[(1-cyanocyclopropyl)methyl]-4-[2-(3,5-dichlorophenyl)-2-(trifluoromethyl)-3H-furan-4-yl]-2-methyl-benzamide]
≥ 80%: percent effect (mortality or growth inhibition) at 200 ppm [1] | percent effect (mortality or growth inhibition) at 200 ppm [2] | percent control (mortality, anti-feedant effect or growth inhibition) at 200 ppm [3, 8] | percent effect (mortality or growth inhibition) at 200 ppm [4] | mortality at 12 ppm [5, 9] | mortality at 200 ppm [6, 10] | mortality at 200 ppm [7, 11]

Cc1cc(C2=NCC(c3cc(Cl)c(F)c(Cl)c3)(C(F)(F)F)C2)ccc1C(=O)NCC1(C#N)CC1 (centres unmarked) [Compound A4, N-[(1-cyanocyclopropyl)methyl]-4-[3-(3,5-dichloro-4-fluorophenyl)-3-(trifluoromethyl)-2,4-dihydropyrrol-5-yl]-2-methyl-benzamide]
≥ 80%: percent effect (mortality or growth inhibition) at 200 ppm [1] | percent effect (mortality or growth inhibition) at 200 ppm [2] | percent control (mortality, anti-feedant effect or growth inhibition) at 200 ppm [3, 8] | percent effect (mortality or growth inhibition) at 200 ppm [4] | mortality at 12 ppm [5, 9] | mortality at 200 ppm [6, 10] | mortality at 200 ppm [7, 11]

Cc1cc(C2=NCC(c3cc(Cl)c(Cl)c(Cl)c3)(C(F)(F)F)C2)ccc1C(=O)NCC1(C#N)CC1 (centres unmarked) [Compound A5, N-[(1-cyanocyclopropyl)methyl]-2-methyl-4-[3-(3,4,5-trichlorophenyl)-3-(trifluoromethyl)-2,4-dihydropyrrol-5-yl]benzamide]
≥ 80%: percent effect (mortality or growth inhibition) at 200 ppm [1] | percent effect (mortality or growth inhibition) at 200 ppm [2] | percent control (mortality, anti-feedant effect or growth inhibition) at 200 ppm [3, 8] | percent effect (mortality or growth inhibition) at 200 ppm [4] | mortality at 12 ppm [5, 9] | mortality at 200 ppm [6, 10] | mortality at 200 ppm [7, 11]
